Experimental data reported in patent publication US10682388B2, “Targeting of PELP1 in cancer therapy” (THE BOARD OF REGENTS OF THE UNIVERSITY OF TEXAS SYSTEM, priority 2014, dated 2020).
“Also recorded” adds a separate entry of the source.

Legend:
[1] = target: T1, PELP1, G9a and ERα complex (Homo sapiens, UniProt Q8IZL8); experiment: Competition assay for the complex of PELP1, G9a and ERα; assay type: binding; conditions: FIG. 2C
T1 construct: purified bacterial, full-length PELP1; host or cells: bacteria (PELP1)
T1 sequence (Q8IZL8 2-1130, one chain of several): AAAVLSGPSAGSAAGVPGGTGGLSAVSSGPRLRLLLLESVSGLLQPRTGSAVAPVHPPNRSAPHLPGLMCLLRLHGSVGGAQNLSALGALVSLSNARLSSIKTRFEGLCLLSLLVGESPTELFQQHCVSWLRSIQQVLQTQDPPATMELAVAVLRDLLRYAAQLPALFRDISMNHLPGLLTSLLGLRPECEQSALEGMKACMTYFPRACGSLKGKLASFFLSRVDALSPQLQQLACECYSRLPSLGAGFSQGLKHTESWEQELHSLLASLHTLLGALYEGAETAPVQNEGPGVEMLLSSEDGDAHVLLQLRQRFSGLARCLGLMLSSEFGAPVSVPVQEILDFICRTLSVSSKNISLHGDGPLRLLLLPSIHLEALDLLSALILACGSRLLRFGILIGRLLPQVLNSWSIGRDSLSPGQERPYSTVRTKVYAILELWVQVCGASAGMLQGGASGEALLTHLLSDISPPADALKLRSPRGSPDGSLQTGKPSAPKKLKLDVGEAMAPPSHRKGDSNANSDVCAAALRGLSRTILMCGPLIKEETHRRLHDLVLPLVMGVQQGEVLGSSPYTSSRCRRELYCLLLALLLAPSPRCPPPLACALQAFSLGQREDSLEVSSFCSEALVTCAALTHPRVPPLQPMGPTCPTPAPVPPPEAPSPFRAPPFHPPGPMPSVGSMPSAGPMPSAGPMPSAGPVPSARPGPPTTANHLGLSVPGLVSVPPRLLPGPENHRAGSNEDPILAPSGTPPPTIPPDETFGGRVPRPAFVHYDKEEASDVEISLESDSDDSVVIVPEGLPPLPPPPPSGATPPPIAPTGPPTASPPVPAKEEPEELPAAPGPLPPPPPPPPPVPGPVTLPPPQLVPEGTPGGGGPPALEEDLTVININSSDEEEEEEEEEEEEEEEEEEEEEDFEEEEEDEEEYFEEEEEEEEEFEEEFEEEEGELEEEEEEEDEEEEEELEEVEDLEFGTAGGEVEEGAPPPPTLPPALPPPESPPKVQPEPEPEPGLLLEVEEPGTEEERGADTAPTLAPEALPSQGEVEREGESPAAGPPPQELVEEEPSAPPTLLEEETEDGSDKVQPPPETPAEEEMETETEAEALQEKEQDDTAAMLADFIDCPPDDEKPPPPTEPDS
Experimental: FIGS. 2A-D. (FIG. 2A) Immunoprecipitation was performed on nuclear lysates obtained from […]1 cells grown in 5% DCC for 72 hours and treated with estradiol 10^-7 M for 12 hours. PELP1 was immunoprecipitated and western blotting was performed for PELP1 and G9a expression with IgG as the control. (FIG. 2B) Various fragments of PELP1 bound to glutathione beads were incubated with recombinant G9a for 2 hours. Beads were washed, run on an SDS-PAGE gel and immunoblotted for G9a expression. GST tag alone is shown as control. (FIG. 2C) Recombinant G9a-GST was bound to glutathione beads and incubated with purified PELP1 and peptides for 2 hours. Beads were washed and run on SDS-PAGE gel. (FIG. 2D) ZR75 cells were transfected with ERE-luciferase, PELP1 and/or G9a plasmids and treated with peptide for 24 hours and estradiol 10^-7 M for 12 hours. Relative luciferase activity is shown. Peptides were linked to EZ-Link NHS-Biotin (Thermo Scientific) per manutfacturer's protocol. […] Beads were washed 3× with IP buffer (20 mM HEPES pH 7.9, 20% glycerol, 0.1% triton-x, 100 mM KCl), eluted with SDS-dye, and PELP1 expression was determined by western blotting. […]

[2] = test system: ERE-luciferase in ZR75 cells; experiment: ERE-luciferase reporter gene assay in ZR75 cells transfected with PELP1 and/or G9a; assay type: cell-based, Human; conditions: FIG. 2D
Experimental: FIGS. 2A-D. (FIG. 2A) Immunoprecipitation was performed on nuclear lysates obtained from ZRPELP1 cells grown in 5% DCC for 72 hours and treated with estradiol 10^−7 M for 12 hours. PELP1 was immunoprecipitated and western blotting was performed for PELP1 and G9a expression with IgG as the control. (FIG. 2B) Various fragments of PELP1 bound to glutathione beads were incubated with recombinant G9a for 2 hours. Beads were washed, run on an SDS-PAGE gel and immunoblotted for G9a expression. GST tag alone is shown as control. (FIG. 2C) Recombinant G9a-GST was bound to glutathione beads and incubated with purified PELP1 and peptides for 2 hours. Beads were washed and run on SDS-PAGE gel. (FIG. 2D) ZR75 cells were transfected with ERE-luciferase, PELP1 and/or G9a plasmids and treated with peptide for 24 hours and estradiol 10^−7 M for 12 hours. Relative luciferase activity is shown.
Model cells were seeded in 6-well plates. After overnight incubation, the cells were transfected with ERE-Luc plasmids using fugene for 6 h. Then, 24 hours after transfection, cells were incubated in 5% DCC media for estrogen starvation and then treated with TAT or PIP1/PIP2 for an additional 24 hours and estradiol (10^−8) for 12 hours. […] Luciferase activity was measured by using the luciferase assay system (Promega, Madison, Wis.).

ZRPELP1 cells = experiment: Soft agar colony formation assay; assay type: cell-based, Human; conditions: 10 μM every three days, colonies counted day 14, FIG. 5C
Experimental: FIGS. 5A-D. (FIG. 5A) ZR75vec, ZR75PELP1, MCF7vec and MCF7PELP1 cells were plated in the top of a Boyden chamber transwell, treated with TAT, PIP1 or PIP2 (10 μM) and absorbance was measured at 12 hours in triplicate. (FIG. 5B) MCF7vec, MCFP7ELP1, ZR75vec and ZR75PELP1 cells were treated in triplicate with TAT, PIP1 or PIP2 (10 μM) every 3 days, fixed with methanol on day 10 and stained with crystal violet. Average colonies per well are shown. (FIG. 5C) ZR75vec and ZR75PELP1 cells were plated in triplicate in agar with 8% RPMI with TAT, PIP1 or PIP2 (10 μM). Colonies were counted on day 14, representative images are shown on right. (FIG. 5D) ZR75 cells were plated on coverslips in triplicate and treated with TAT or PIP1 (10 μM) for 24 hours. Cells were fixed with paraformaldehyde and labeled with TUNEL and DAPI, representative images are shown on right.
Model cells MCF7, MCF7-PELP1, ZR75 and ZR75-PELP1 were seeded in a 0.6% agar solution with RPMI/10% FBS over a base agar layer in 35 mm plates in triplicate with TAT, PIP1, or PIP2 (10 μM). Media with peptide was added every 3 days and colonies were counted after 14 days.

BG1 cells = experiment: Ovarian cancer cell proliferation; assay type: cell-based; conditions: BG1, FIG. 14
Experimental: FIG. 14. […] Cell proliferation rates were measured by using MTT Cell Viability Assay in 96-well plates. Model cells were seeded in 96-well plates (1×10^3 cells/well) in DMEM or RPMI medium containing 10% serum. After an overnight incubation, cells were treated with varying concentrations of the peptides for 3-7 days and growth inhibition was determined by using traditional MTT assay (Sigma) following manufacturer's instructions.

PELP1 = PELP1 (Homo sapiens, UniProt Q8IZL8); experiment: Peptide pull-down assay, biotin-tagged peptides on avidin beads with nuclear lysates from ZR75 cells; assay type: binding; conditions: one hour, FIG. 1D
PELP1, sequence (Q8IZL8 whole entry, the tested form may be a part): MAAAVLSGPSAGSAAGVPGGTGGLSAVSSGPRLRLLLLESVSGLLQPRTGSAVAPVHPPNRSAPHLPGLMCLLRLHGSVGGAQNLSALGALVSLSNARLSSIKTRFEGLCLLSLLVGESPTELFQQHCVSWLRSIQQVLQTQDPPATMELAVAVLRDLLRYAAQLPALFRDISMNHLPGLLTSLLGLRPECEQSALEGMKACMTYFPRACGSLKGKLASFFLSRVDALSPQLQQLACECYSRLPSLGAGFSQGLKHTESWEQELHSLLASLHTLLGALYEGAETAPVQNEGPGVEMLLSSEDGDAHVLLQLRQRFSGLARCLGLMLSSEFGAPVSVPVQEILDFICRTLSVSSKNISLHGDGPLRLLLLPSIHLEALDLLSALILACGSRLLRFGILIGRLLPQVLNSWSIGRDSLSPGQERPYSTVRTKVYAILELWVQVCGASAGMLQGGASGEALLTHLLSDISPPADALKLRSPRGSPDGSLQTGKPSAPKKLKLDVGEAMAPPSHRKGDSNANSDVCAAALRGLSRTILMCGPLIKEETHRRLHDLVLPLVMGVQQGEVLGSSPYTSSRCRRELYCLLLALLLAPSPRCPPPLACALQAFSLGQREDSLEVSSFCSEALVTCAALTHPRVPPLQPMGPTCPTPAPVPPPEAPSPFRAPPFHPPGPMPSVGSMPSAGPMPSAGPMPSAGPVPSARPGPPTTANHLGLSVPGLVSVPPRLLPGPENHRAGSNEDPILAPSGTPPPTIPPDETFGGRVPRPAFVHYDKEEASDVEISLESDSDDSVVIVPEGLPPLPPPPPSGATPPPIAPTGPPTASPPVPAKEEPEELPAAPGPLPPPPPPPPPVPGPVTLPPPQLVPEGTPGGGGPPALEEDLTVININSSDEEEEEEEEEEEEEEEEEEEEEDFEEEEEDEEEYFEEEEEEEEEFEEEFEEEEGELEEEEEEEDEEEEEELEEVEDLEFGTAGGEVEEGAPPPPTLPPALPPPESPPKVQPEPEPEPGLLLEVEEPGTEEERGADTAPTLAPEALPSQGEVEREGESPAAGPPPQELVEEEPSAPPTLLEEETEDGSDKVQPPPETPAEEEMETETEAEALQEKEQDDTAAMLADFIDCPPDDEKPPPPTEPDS
Experimental: FIGS. 1A-D. (FIG. 1A) Diagram for yeast two hybrid screen to identify PELP1 binding peptides. Four regions of PELP1 were tagged with the binding domain and a library of 10^6 random peptides (Clontech) were bound to an activation domain. The number of positive colonies per region of PELP1 are shown in the graph. (FIG. 1B) A proliferation assay was performed with […]1 cells plated in a 96 well plate, treated with peptide every 3 days and absorbance was measured at 7 days. (FIG. 1C) ZR75 were plated in a 6-well plate on coverslips in 8% RPMI and treated with 10 uM FITC labeled peptide for 30, 60, or 120 minutes. They were then fixed with pararformaldehyde, stained for PELP1 (red) and DAPI (blue), and imaged by confocal microscopy to monitor intracellular delivery. (FIG. 1D) ZR75 cells were starved of estrogen for 72 hours and treated with estradiol 10^-7 M for 12 hours. Nuclear lysate was incubated with biotin-tagged peptides bound to avidin beads for one hour. Beads were washed, run on SDS-PAGE gel and probed for PELP1 expression. Input of nuclear lysate is shown as control. Peptides were linked to EZ-Link NHS-Biotin (Thermo Scientific) per manutfacturer's protocol. […] Beads were washed 3× with IP buffer (20 mM HEPES pH 7.9, 20% glycerol, 0.1% triton-x, 100 mM KCl), eluted with SDS-dye, and PELP1 expression was determined by western blotting. […]

Q: GRKKRRQRRRGGMVEFRWSCPGRRKAKA [PIP1] was tested. Which “formation of PELP1, G9a and ERα complex” value [1] did it give?
A: The value was “prevents the three proteins from forming a complex”.

Q: What about the “estrogen response synergistically activated by PELP1 and G9a (ERE-luciferase)” value [2] of the same sequence?
A: The value was “inhibited”.

Q: What about the “colony formation in soft agar (anchorage independence)” value (ZRPELP1 cells) of the same sequence?
A: The value was “substantial decrease in colony formation”.

Q: And the “proliferation of ovarian cancer cells” value (BG1 cells)?
A: Its value is “dose-dependent decrease in the proliferation; also recorded: inhibits proliferation of ovarian cancer cells”.

Q: What about the “affinity to bind to PELP1 in peptide pull-down” value (PELP1) of the same sequence?
A: The value was “higher affinity to bind to PELP1 than PIP2”.
